{"source": "patent US20230250096A1", "about": "“SUBSTITUTED PHENYL-1H-PYRROLO[2,3-c] PYRIDINE DERIVATIVES” (Janssen Pharmaceutica NV, priority 2021, published 2023)"}
{"molecular_target": "T1, menin/MLL (terbium chelate-labeled menin, FITC-MBM1 peptide) (Homo sapiens, UniProt O00255, T541A)", "T1 construct": "Menin (a.a 1-610-6xhis tag, 2.3 mg/mL in 20 mM Hepes)", "T1 sequence (O00255 with tags, fused parts or gaps T541A)": "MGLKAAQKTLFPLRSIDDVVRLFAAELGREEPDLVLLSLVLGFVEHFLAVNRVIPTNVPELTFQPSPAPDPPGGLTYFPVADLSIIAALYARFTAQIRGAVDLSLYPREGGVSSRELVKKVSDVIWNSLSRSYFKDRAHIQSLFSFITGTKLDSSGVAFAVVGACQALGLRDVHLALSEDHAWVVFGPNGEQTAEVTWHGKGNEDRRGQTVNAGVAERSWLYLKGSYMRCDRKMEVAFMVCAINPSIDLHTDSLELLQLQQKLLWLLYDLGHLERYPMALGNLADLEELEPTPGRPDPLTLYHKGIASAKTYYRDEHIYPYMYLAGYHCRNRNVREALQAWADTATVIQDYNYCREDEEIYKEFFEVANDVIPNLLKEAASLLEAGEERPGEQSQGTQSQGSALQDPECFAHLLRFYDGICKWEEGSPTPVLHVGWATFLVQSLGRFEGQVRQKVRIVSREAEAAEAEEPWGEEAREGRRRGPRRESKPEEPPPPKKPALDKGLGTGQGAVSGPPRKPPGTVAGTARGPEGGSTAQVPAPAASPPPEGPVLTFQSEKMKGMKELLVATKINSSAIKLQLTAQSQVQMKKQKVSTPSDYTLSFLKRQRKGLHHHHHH", "experiment": "Menin/MLL homogenous time-resolved fluorescence (HTRF) assay", "format": "binding", "conditions": "30 min incubation", "summary_of_the_method": "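Terbium-labeled menin (a.a. 1-610, His-tagged; […]) pre-incubated 30 min with compound, then 75 nM FITC-MBM1 peptide added for 15 min at ambient temperature in Tris pH 7.5 buffer, 0.5% DMSO. HTRF 520/490 nm ratio read; IC50 from 11-point four-fold titrations, typically from 10 μM.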", "units": {"IC50": "nM"}}
{"smiles": "CC(=O)N1CCN([C@H]2C[C@@H]([C@@H](C(C)C)N3CC(Cc4cn(-c5ccc(F)cc5C(=O)N(C)C(C)C)c5cncc(C)c45)C3)C2)CC1", "note": "(single isomer, unassigned) [Compound 32a]", "IC50": 0.062}
{"smiles": "CC(=O)N1CCC(CN2CCC(Cc3cn(-c4ccc(F)cc4C(=O)N(C)C(C)C)c4cncc(C)c34)CC2)CC1", "note": "[Compound 58]", "IC50": 0.135}
{"smiles": "Cc1cncc2c1c(CC1CCN(CC3CCN(C(=O)CC#N)CC3)C1)cn2-c1ccc(F)cc1C(=O)N(C)C(C)C", "note": "(single isomer, unassigned) [Compound 60]", "IC50": "< 0.0095"}
{"smiles": "Cc1cncc2c1c(C[C@@H]1CCN(CC3CCOCC3)C1)cn2-c1ccc(F)cc1C(=O)N(C[C@H](C)O)C(C)C", "note": "(single isomer, unassigned) [Compound 365b]", "IC50": 0.081}
{"smiles": "CC(C)C([C@H]1C[C@@H](N(C)C)C1)N1CC(Cc2cn(-c3ccc(F)cc3C(=O)N(C)C(C)C)c3cncc(Cl)c23)C1", "note": "(some centres unmarked) [Compound 41]", "IC50": 0.202}
{"smiles": "COCCN(C)CCCC(C(C)C)N1CC[C@@H](Cc2cn(-c3ccc(F)cc3C(=O)N(C)C(C)C)c3cncc(C)c23)C1", "note": "(some centres unmarked) [Compound 1]", "IC50": 0.033}
{"smiles": "Cc1cncc2c1c(C[C@@H]1CCN(CC3CCOCC3)C1)cn2-c1ccc(F)cc1C(=O)N(C)C(C)C", "note": "(single isomer, unassigned) [Compound 42]", "IC50": 0.03}
{"smiles": "CC(=O)N1C[C@@H]2CN([C@H]3C[C@@H]([C@@H](C(C)C)N4CC(Cc5cn(-c6ccc(F)cc6C(=O)N(C)C(C)C)c6cncc(Cl)c56)C4)C3)C[C@H]2C1", "note": "(single isomer, unassigned) [Compound 39a]", "IC50": 0.034}
{"smiles": "Cc1cncc2c1c(C[C@H]1CCN(CC(C)C)C1)cn2-c1ccc(F)cc1C(=O)N(C)C(C)C", "note": "(single isomer, unassigned) [Compound 45]", "IC50": 0.054}
{"smiles": "CC(=O)N1CCC(CN2CC[C@@H](Cc3cn(-c4ccc(F)cc4C(=O)N(C)C(C)C)c4cncc(C)c34)C2)CC1", "note": "(single isomer, unassigned) [Compound 50]", "IC50": 0.079}
{"smiles": "Cc1cncc2c1c(C[C@H]1CCN(C(C)C3CCOCC3)C1)cn2-c1ccc(F)cc1C(=O)N(C)C(C)C", "note": "(mixture of isomers) [Compound 49]", "IC50": 0.048}
{"smiles": "CNC(=O)[C@H]1CC[C@H](CN2CCC(Cc3cn(-c4ccc(F)cc4C(=O)N(C)C(C)C)c4cncc(C)c34)C2)CC1", "note": "(single isomer, unassigned) [Compound 71]", "IC50": 0.202}
{"smiles": "Cc1cncc2c1c(C[C@@H]1CCN(CC(C)C)C1)cn2-c1ccc(F)cc1C(=O)N(C)C(C)C", "note": "(single isomer, unassigned) [Compound 44]", "IC50": 0.06}
{"smiles": "Cc1cncc2c1c(C[C@H]1CCN(C[C@H]3CC[C@H](NS(C)(=O)=O)CC3)C1)cn2-c1ccc(F)cc1C(=O)N(C)C(C)C", "note": "(single isomer, unassigned) [Compound 69]", "IC50": 0.049}
{"smiles": "Cc1cncc2c1c(CC1CN(CC3CCN(C(=O)CC#N)CC3)C1)cn2-c1ccc(F)cc1C(=O)N(C)C(C)C", "note": "[Compound 67]", "IC50": "~0.043"}
{"smiles": "CNC(=O)[C@H]1CC[C@H](CN2CCC(Cc3cn(-c4ccc(F)cc4C(=O)N(C)C(C)C)c4cncc(C)c34)C2)CC1", "note": "(single isomer, unassigned) [Compound 70]", "IC50": 0.114}
{"smiles": "CCN(C(=O)c1cc(F)ccc1-n1cc(CC2CN(C(C(C)C)[C@H]3C[C@@H](N4CCN(S(C)(=O)=O)CC4)C3)C2)c2c(C)cncc21)C(C)C", "note": "(some centres unmarked) [Compound 37a]", "IC50": 0.126}
{"smiles": "Cc1cncc2c1c(C[C@H]1CCN(CC3CCOCC3)C1)cn2-c1ccc(F)cc1C(=O)N(C)C(C)C", "note": "(single isomer, unassigned) [Compound 43]", "IC50": 0.027}
{"smiles": "CC(=O)N1CCC(CN2CC(Cc3cn(-c4ccc(F)cc4C(=O)N(C)C(C)C)c4cncc(C)c34)C2)CC1", "note": "[Compound 63]", "IC50": 0.176}
{"smiles": "COCC(=O)N1CCC(CN2CC(Cc3cn(-c4ccc(F)cc4C(=O)N(C)C(C)C)c4cncc(C)c34)C2)CC1", "note": "[Compound 66]", "IC50": 0.037}
{"smiles": "Cc1cncc2c1c(CC1CN(CC3CCOCC3)C1)cn2-c1ccc(F)cc1C(=O)N(C)C(C)C", "note": "[Compound 61]", "IC50": 0.132}
{"smiles": "COCC(=O)N1CCC(CN2CCC(Cc3cn(-c4ccc(F)cc4C(=O)N(C)C(C)C)c4cncc(C)c34)C2)CC1", "note": "(single isomer, unassigned) [Compound 59]", "IC50": 0.054}
{"smiles": "Cc1cncc2c1c(CC1CN([C@@H](C(C)C)[C@H]3C[C@@H](N4CCC(S(C)(=O)=O)CC4)C3)C1)cn2-c1ccc(F)cc1C(=O)N(C)C(C)C", "note": "[Compound 33a]", "IC50": 0.07}
{"smiles": "CCN(C(=O)c1cc(F)ccc1-n1cc(CC2CN(C(C(C)C)[C@H]3C[C@@H](N4C[C@H]5CN(C(C)=O)C[C@@H]5C4)C3)C2)c2c(C)cncc21)C(C)C", "note": "(mixture of isomers) [Compound 38a]", "IC50": 0.036}
{"smiles": "Cc1cncc2c1c(C[C@@H]1CCN(CC3CCOCC3)C1)cn2-c1ccc(F)cc1C(=O)N(CCO)C(C)C", "note": "[Compound 357]", "IC50": 0.035}
{"smiles": "Cc1cncc2c1c(C[C@H]1CCN([C@@H](C)C3CCOCC3)C1)cn2-c1ccc(F)cc1C(=O)N(C)C(C)C", "note": "(single isomer, unassigned) [Compound 49b]", "IC50": 0.06}
